Test results reported in patent publication US20030133923A1, “Composition for preventing the formation and enhancing the breakdown of bezoars in animals and humans” (priority 2001, published 2003).

Experiment: In vitro breakdown of a feline hairball under simulated stomach conditions (pH 3.0, 100° F., 24 hours)
Conditions: for % enhanced break down: versus 0% Tween-80; for Hair clump wt: hairball 1.0-1.1 g
Description: Tween 80 (lot#1373A, Uniqema, Wilmington, Del.) was dissolved in 150 ml acidified water (pH 3.0) at a concentration of 0%, 5%, 10%, 15%, and 20%. A feline hairball (1.0-1.1 g) was then added to each of the five solutions. The mixtures were incubated at 100° F. for 24 hours. After incubation, hair lumps (defined as hair not floating free in the liquid) was removed and the liquid was strained through cheesecloth. Free hair and hair lumps were then dried and weighed.

CCCCCCCC/C=C\CCCCCCCC(=O)OCCOCC(OCCO)C1OCC(OCCO)C1OCCO (centres unmarked) [Tween-80]
Free hair wt (5% Tween-80, pH 3.0, 100° F.): 0.1606 g | Free hair wt (% total wt) (5% Tween-80, pH 3.0, 100° F.): 20.38% | Hair clump wt (% total wt) (5% Tween-80, pH 3.0, 100° F.): 79.62% | % enhanced break down (5% Tween-80, pH 3.0, 100° F.): 5% | Hair clump wt (5% Tween-80 in 150 ml acidified water pH 3.0, 100° F.): 0.6273 g | Free hair wt (10% Tween-80, pH 3.0, 100° F.): 0.2576 g | Free hair wt (% total wt) (10% Tween-80, pH 3.0, 100° F.): 53.78% | Hair clump wt (% total wt) (10% Tween-80, pH 3.0, 100° F.): 46.22% | % enhanced break down (10% Tween-80, pH 3.0, 100° F.): 35% | Hair clump wt (10% Tween-80 in 150 ml acidified water pH 3.0, 100° F.): 0.2214 g | Free hair wt (15% Tween-80, pH 3.0, 100° F.): 0.1980 g | Free hair wt (% total wt) (15% Tween-80, pH 3.0, 100° F.): 47.86% | Hair clump wt (% total wt) (15% Tween-80, pH 3.0, 100° F.): 52.14% | % enhanced break down (15% Tween-80, pH 3.0, 100° F.): 35% | Hair clump wt (15% Tween-80 in 150 ml acidified water pH 3.0, 100° F.): 0.2157 g | Free hair wt (20% Tween-80, pH 3.0, 100° F.): 0.2480 g | Free hair wt (% total wt) (20% Tween-80, pH 3.0, 100° F.): 51.99% | Hair clump wt (% total wt) (20% Tween-80, pH 3.0, 100° F.): 48.00% | % enhanced break down (20% Tween-80, pH 3.0, 100° F.): 35% | Hair clump wt (20% Tween-80 in 150 ml acidified water pH 3.0, 100° F.): 0.2290 g
